IC50 data for 22 compounds are collected here from patent US20240262826A1, “WILD TYPE KIT INHIBITORS” (Blueprint Medicines Corporation, priority 2022, published 2024).

This test concerns the target wild type c-kit (Homo sapiens (Human), UniProt P10721). As to the kind of experiment: PathScan phospho c-kit (Tyr719) sandwich ELISA in SCF-stimulated M-07e cells (pKIT assay). The conditions noted are these: ELISA assay (values not marked *). The test is classed as cell-based. From the text:
The ability of compounds of the disclosure (described herein as test compounds) to inhibit autophosphorylation of wild type c-kit was measures using either a PathScan phospho c-kit (Tyr719) sandwich ELISA (CST #7298) or a Phospho c-Kit (Tyr721) Assay Whole Cell Lysate Kit (MSD: 515DPD/catalog number K15119D-2).
For the PathScan phospho c-kit (Tyr719) sandwich ELISA: M-07e cells were resuspended at 2×10^6 cells/mL in phenol red free, serum-free, GM-CSF-free Iscove's Modified Dulbecco's Medium (IMDM) media with 1% Penicillin-Streptomycin. The cells were then dispensed into the wells of a U-bottom, 96-well plate at 50 uL per well using a multichannel pipet. The plate was allowed to incubate at 37° C. in a humidified tissue culture incubator for 4 hours.
After 4 hours of incubation, each well was dosed with 6.25 uL of test compound at a final DMSO concentration of 0.25% for 60 min at 37° C. to generate an 8-point dose concentration series of test compounds in duplicate. Cells were then incubated for 1 hour at 37° C. in a humidified tissue culture incubator. Next, human SCF at 500 ng/mL was added to the appropriate wells at 6.25 uL/well and the plate was shaken at 450 rpm at room temperature for 10 minutes. AlphaLISA 5× Lysis Buffer supplemented with 1× protease and phosphatase inhibitor was then added at 16 uL/well. The plate was sealed with an adherent cover and shaken at 4° C. at 600 rpm for 30 minutes. After this period of lysis, the plate was stored at −80° C.
When the 96-well plate containing M07e lysates was ready to be processed, the plate was brought to room temperature and 40 μl from each well was transferred to the wells of a PathScan Phospho-c-Kit (Tyr719) Sandwich ELISA plate (CST, Catalog #7298). The ELISA plate was sealed with an adherent cover and incubated for 2 hours at 37° C. Next, the wells were washed 4 times with the provided 1× Wash Buffer, and 100 uL/well of reconstituted Detection Antibody was added to each well, the plate sealed with an adherent cover, and incubated at 37° C. for 1 hour. The wash procedure was repeated and 100 uL/well of reconstituted HRP-Linked secondary antibody was added. The plate was sealed with an adherent cover and incubated at 37° C. for 1 hour. The wash procedure was repeated and 100 uL/well of TMB Substrate was added. The plate was incubated for 10 minutes at room temperature or until the positive reaction elicited a blue color in the appropriate wells. 100 uL/well of STOP solution was added and shaken gently for a few seconds a microplate reader or conventional spectrophotometer e.g., a Perkin Elmer Envision multimode plate reader, part #2105-0010.
An IC50 was calculated using a 4-parameter logistic nonlinear regression.

Sequence of wild type c-kit (P10721 26-976): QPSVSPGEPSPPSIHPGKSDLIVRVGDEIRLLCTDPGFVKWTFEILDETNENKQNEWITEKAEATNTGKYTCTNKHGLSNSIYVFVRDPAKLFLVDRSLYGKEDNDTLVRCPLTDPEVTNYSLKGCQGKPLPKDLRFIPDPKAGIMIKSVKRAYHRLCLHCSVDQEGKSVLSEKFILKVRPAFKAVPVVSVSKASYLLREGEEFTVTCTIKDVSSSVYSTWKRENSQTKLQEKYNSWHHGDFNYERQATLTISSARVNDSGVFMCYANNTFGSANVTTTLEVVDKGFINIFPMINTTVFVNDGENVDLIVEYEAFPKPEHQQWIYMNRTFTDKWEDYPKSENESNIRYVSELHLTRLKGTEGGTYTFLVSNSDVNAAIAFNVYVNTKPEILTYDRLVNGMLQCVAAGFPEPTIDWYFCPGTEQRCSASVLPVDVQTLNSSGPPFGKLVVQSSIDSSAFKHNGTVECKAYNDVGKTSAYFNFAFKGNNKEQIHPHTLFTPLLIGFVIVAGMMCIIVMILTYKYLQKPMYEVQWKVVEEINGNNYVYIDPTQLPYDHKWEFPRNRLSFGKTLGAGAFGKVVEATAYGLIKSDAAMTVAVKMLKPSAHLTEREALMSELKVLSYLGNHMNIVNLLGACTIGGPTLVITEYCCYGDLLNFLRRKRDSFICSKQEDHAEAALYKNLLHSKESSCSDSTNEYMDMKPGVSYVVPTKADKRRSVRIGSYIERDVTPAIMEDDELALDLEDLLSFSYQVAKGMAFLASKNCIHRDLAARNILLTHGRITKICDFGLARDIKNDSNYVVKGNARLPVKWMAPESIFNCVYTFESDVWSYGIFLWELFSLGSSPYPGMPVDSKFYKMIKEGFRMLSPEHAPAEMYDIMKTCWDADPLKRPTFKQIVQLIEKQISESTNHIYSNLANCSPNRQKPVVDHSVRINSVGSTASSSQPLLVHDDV

Consider `Cc1cc(F)c(-c2nnn(C3CC3)n2)cc1NC(=O)c1cnn2ccc(-c3cn(C[C@H](C)O)nc3C)cc12` [Example 256, (S)-N-(5-(2-cyclopropyl-2H-tetrazol-5-yl)-4-fluoro-2-methylphenyl)-5-(1-(2-hydroxypropyl)-3-methyl-1H-pyrazol-4-yl)pyrazolo[1,5-a]pyridine-3-carboxamide], for which half-maximal inhibition (IC50) required 0.5 nM.

As for `[2H]C([2H])([2H])N1CCN(c2ccn3ncc(C(=O)Nc4cc(-c5nnn(C6CN(C(=O)OC)C6)n5)ccc4C)c3c2)CC1` [Example 72, methyl 3-(5-(4-methyl-3-(5-(4-(methyl-d3)piperazin-1-yl)pyrazolo[1,5-a]pyridine-3-carboxamido)phenyl)-2H-tetrazol-2-yl)azetidine-1-carboxylate], 38.4 nM corresponded to half-maximal inhibition (IC50).

`Cc1ccc(-c2nnn(C3CC(F)(F)C3)n2)cc1NC(=O)c1cnn2ccc(N3CC(O)C3)cc12` [Example 60, N-(5-(2-(3,3-difluorocyclobutyl)-2H-tetrazol-5-yl)-2-methylphenyl)-5-(3-hydroxyazetidin-1-yl)pyrazolo[1,5-a]pyridine-3-carboxamide]: the IC50 (as a rule, the point on the concentration scale where inhibition reaches its midpoint) was found to be 1.8 nM.

For `Cc1ccc(-c2nnn(C3CN(S(=O)(=O)CCCCC#N)C3)n2)cc1NC(=O)c1cnn2ccccc12` [Example 186, N-(5-(2-(1-((4-cyanobutyl)sulfonyl)azetidin-3-yl)-2H-tetrazol-5-yl)-2-methylphenyl)pyrazolo[1,5-a]pyridine-3-carboxamide], half-maximal inhibition (IC50) required 103 nM.

Take `COC(=O)N1CC(n2nnc(-c3ccc(C)c(NC(=O)c4cnn5ccc(N6CCC[C@H](O)C6)cc45)c3)n2)C1` [Example 70, methyl (S)-3-(5-(3-(5-(3-hydroxypiperidin-1-yl)pyrazolo[1,5-a]pyridine-3-carboxamido)-4-methylphenyl)-2H-tetrazol-2-yl)azetidine-1-carboxylate]: the IC50 is 53.1 nM.

The compound `O=C(Nc1cc(-c2nnn(C3CC(F)(F)C3)n2)ccc1Cl)c1cnn2ccccc12` [Example 17, N-(2-chloro-5-(2-(3,3-difluorocyclobutyl)-2H-tetrazol-5-yl)phenyl)pyrazolo[1,5-a]pyridine-3-carboxamide] came in with an IC50 of 6.5 nM.

As for `COC(=O)N1CC(n2nnc(-c3ccc(C)c(NC(=O)c4cnn5ccc(N(C)C)cc45)c3)n2)C1` [Example 132, methyl 3-(5-(3-(5-(dimethylamino)pyrazolo[1,5-a]pyridine-3-carboxamido)-4-methylphenyl)-2H-tetrazol-2-yl)azetidine-1-carboxylate], the midpoint of inhibition, the IC50, lay at 21.4 nM. Against the preceding compound, the IC50 is about 3.3-fold higher.

On to `CCOC(=O)N1CC(n2nnc(-c3ccc(C)c(NC(=O)c4cnn5ccc(N6CCN(C)CC6)cc45)c3)n2)C1` [Example 76, ethyl 3-(5-(4-methyl-3-(5-(4-methylpiperazin-1-yl)pyrazolo[1,5-a]pyridine-3-carboxamido)phenyl)-2H-tetrazol-2-yl)azetidine-1-carboxylate], for which the IC50 turned out to be 55.6 nM.

`Cc1nn([C@H](C)[C@H](C)O)cc1-c1ccn2ncc(C(=O)Nc3cc(-c4nnn(C5CC5)n4)c(F)cc3Cl)c2c1` (single isomer, unassigned) [Example 289, N-(2-chloro-5-(2-cyclopropyl-2H-tetrazol-5-yl)-4-fluorophenyl)-5-(1-((2R,3S)-3-hydroxybutan-2-yl)-3-methyl-1H-pyrazol-4-yl)pyrazolo[1,5-a]pyridine-3-carboxamide or N-(2-chloro-5-(2-cyclopropyl-2H-tetrazol-5-yl)-4-fluorophenyl)-5-(1-((2S,3R)-3-hydroxybutan-2-yl)-3-methyl-1H-pyrazol-4-yl)pyrazolo[1,5-a]pyridine-3-carboxamide] came in with an IC50 of 0.6 nM.

On to `CC(C)(O)Cn1cc(-c2ccn3ncc(C(=O)Nc4cc(-n5nnc(C6CC6)n5)ccc4F)c3c2)cn1` [Example 217, N-(5-(5-cyclopropyl-2H-tetrazol-2-yl)-2-fluorophenyl)-5-(1-(2-hydroxy-2-methylpropyl)-1H-pyrazol-4-yl)pyrazolo[1,5-a]pyridine-3-carboxamide], for which the IC50 is 8.1 nM.

As to `Cc1ccc(-n2nnc(C3CC3F)n2)cc1NC(=O)c1cnn2ccc(-c3cnn(CC(C)(C)O)c3)cc12` (stereo not shown) [Example 222, N-(5-(5-(2-fluorocyclopropyl)-2H-tetrazol-2-yl)-2-methylphenyl)-5-(1-(2-hydroxy-2-methylpropyl)-1H-pyrazol-4-yl)pyrazolo[1,5-a]pyridine-3-carboxamide], the IC50 amounted to 2.7 nM.

Regarding `COC(=O)N1CC(n2nnc(-c3ccc(C)c(NC(=O)c4cnn5ccc(NCC(F)F)cc45)c3)n2)C1` [Example 131, methyl 3-(5-(3-(5-((2,2-difluoroethyl)amino)pyrazolo[1,5-a]pyridine-3-carboxamido)-4-methylphenyl)-2H-tetrazol-2-yl)azetidine-1-carboxylate], inhibition was half-maximal at 49 nM (IC50). This IC50 lies about 18-fold higher than the previous one.

The compound `Cc1cc(F)c(NC(=O)c2cnn3ccc(-c4cnn(CC(C)(C)O)c4)cc23)cc1-c1nnn(C2CC2)n1` [Example 215, N-(5-(2-cyclopropyl-2H-tetrazol-5-yl)-2-fluoro-4-methylphenyl)-5-(1-(2-hydroxy-2-methylpropyl)-1H-pyrazol-4-yl)pyrazolo[1,5-a]pyridine-3-carboxamide] gave an IC50 of 23.7 nM.

Compound `Cc1ccc(-c2nnn(C3CN(S(=O)(=O)CCOCC(F)F)C3)n2)cc1NC(=O)c1cnn2ccccc12` [Example 176, N-(5-(2-(1-((2-(2,2-difluoroethoxy)ethyl)sulfonyl)azetidin-3-yl)-2H-tetrazol-5-yl)-2-methylphenyl)pyrazolo[1,5-a]pyridine-3-carboxamide] came in with an IC50 of 47.9 nM.

`Cc1cc(F)c(-c2nnn(C3CC3)n2)cc1NC(=O)c1cnn2ccc(-c3c(C)nn(C[C@H](C)O)c3C)cc12` [Example 254, (S)-N-(5-(2-cyclopropyl-2H-tetrazol-5-yl)-4-fluoro-2-methylphenyl)-5-(1-(2-hydroxypropyl)-3,5-dimethyl-1H-pyrazol-4-yl)pyrazolo[1,5-a]pyridine-3-carboxamide] displayed an IC50 of 0.4 nM. This IC50 lies about 120-fold lower than the previous one.

Regarding `Cc1ccc(-c2nnn(C3CN(S(=O)(=O)C(C)C)C3)n2)cc1NC(=O)c1cnn2ccccc12` [Example 177, N-(5-(2-(1-(isopropylsulfonyl)azetidin-3-yl)-2H-tetrazol-5-yl)-2-methylphenyl)pyrazolo[1,5-a]pyridine-3-carboxamide], the IC50 was determined as 8.8 nM.

`Cc1ccc(-c2nnn(C3CN(S(=O)(=O)CCC(F)F)C3)n2)cc1NC(=O)c1cnn2ccccc12` [Example 184, N-(5-(2-(1-((3,3-difluoropropyl)sulfonyl)azetidin-3-yl)-2H-tetrazol-5-yl)-2-methylphenyl)pyrazolo[1,5-a]pyridine-3-carboxamide] returned an IC50 of 6.2 nM.

Turning to `COCCNc1ccc2c(C(=O)Nc3cc(-c4nnn(C5CN(C(=O)OC)C5)n4)ccc3Cl)cnn2c1` [Example 164, Methyl 3-(5-(4-chloro-3-(6-((2-methoxyethyl)amino)pyrazolo[1,5-a]pyridine-3-carboxamido)phenyl)-2H-tetrazol-2-yl)azetidine-1-carboxylate], it took 8 nM to reach half-maximal inhibition (IC50).

`CCNc1ccn2ncc(C(=O)Nc3cc(-n4ncc(C5CN(C(=O)OC)C5)n4)ccc3C)c2c1` [Example 137, methyl 3-(2-(3-(5-(ethylamino)pyrazolo[1,5-a]pyridine-3-carboxamido)-4-methylphenyl)-2H-1,2,3-triazol-4-yl)azetidine-1-carboxylate] came in with an IC50 of 16.8 nM.

Regarding `COC(=O)N1CC(n2nnc(-c3ccc(C)c(NC(=O)c4cnn5ccc(N[C@H]6CCOC6)cc45)c3)n2)C1` [Example 136, methyl (S)-3-(5-(4-methyl-3-(5-((tetrahydrofuran-3-yl)amino)pyrazolo[1,5-a]pyridine-3-carboxamido)phenyl)-2H-tetrazol-2-yl)azetidine-1-carboxylate], the IC50 was found to be 76.2 nM.

As to `COC(=O)N1CC(n2nnc(-c3cc(NC(=O)c4cnn5cc(OCCO)ccc45)c(C)cc3F)n2)C1` [Example 223, methyl 3-(5-(2-fluoro-5-(6-(2-hydroxyethoxy)pyrazolo[1,5-a]pyridine-3-carboxamido)-4-methylphenyl)-2H-tetrazol-2-yl)azetidine-1-carboxylate], 23.4 nM corresponded to half-maximal inhibition (IC50).

`Cc1ccc(-c2nnn(C3CN(S(=O)(=O)C4COC4)C3)n2)cc1NC(=O)c1cnn2ccccc12` [Example 183, N-(2-methyl-5-(2-(1-(oxetan-3-ylsulfonyl)azetidin-3-yl)-2H-tetrazol-5-yl)phenyl)pyrazolo[1,5-a]pyridine-3-carboxamide] came in with an IC50 of 45.4 nM.
